Laboratory results from patent publication US10813859B2, “Wrinkle ameliorating agent” (POLA CHEMICAL INDUSTRIES, INC., priority 2016, dated 2020).

Assays:
[1] = system: hyaluronan synthetase gene (HAS1) in normal human epidermal keratinocyte; test: Test for confirming expression-increasing effect of epidermal hyaluronan synthetase gene; assay type: cell-based; conditions: 0.2% by mass in medium, 24 hours; qPCR, ACTB internal standard; FIG. 5
Method: Normal human epidermal keratinocyte (produced by Kurabo Industries Ltd.) was inoculated in a 24-well plate at […] cells/well, and incubated overnight at 37° C. in a 5% CO2 environment. The culture medium was exchanged with a medium containing 0.2% by mass of Compound 1, or glycerol (produced by Wako Pure Chemical Industries, Ltd.) and cultured at 37° C. in a 5% CO2 environment for 24 hours.
Using a mRNA recovery kit (FastLane Cell SYBR Green Kit, produced by Qiagen N.V.), mRNA was extracted by a conventional method. Using a qPCR kit (One Step SYBR PrimeScript RT-PCR Kit II, produced by Takara Bio Inc.), the expression level of the hyaluronan synthetase gene (HAS 1) was analyzed by qPCR using ACTB as an internal standard (7500 Real-Time PCR System, produced by Applied Biosystems). Data analysis was carried out by the ΔΔCt method.
The respective relative values were calculated with respect to the expression level of the gene in a medium not containing Compound 1 and glycerol (non-addition group) as 1.

[2] = Moisture absorbing property confirmation test; assay type: physicochemical; conditions: humidity 75%, 25° C.
Method: Compound 1 was precisely weighed in a 1 g weighing bottle, left in a desiccator with a humidity at 75% (a saturated aqueous solution of sodium chloride) in an open state, and stored at 25° C. The weight was measured from the start of the storage until 30 days thereafter, and the coefficient of moisture absorption was determined by the following formula. Coefficient of moisture absorption (%)=(M3−M2)/(M2−M1)×100
M1: The mass of the weighing bottle (g)
M2: The mass of the weighing bottle containing a sample at the start of the storage (g)
M3: The mass of the weighing bottle containing the sample after the storage (g)

For `OCC(O)COC1CCCCC1` (centres unmarked) [Compound 1, 3-cyclohexyloxy-1,2-propanediol], the “expression level of the hyaluronan synthetase gene (HAS 1) compared to the non-addition group” value [1] was “significantly larger”, the moisture absorbing property ([2]; up to 30 days) was “confirmed” and the “Coefficient of moisture absorption (mean value, n = 3)” value (shortened to “Coefficient of moisture absorption”) ([2]; storage time 1 day) was 13.2%. For the same compound, the “Coefficient of moisture absorption” value ([2]; storage time 3 days) was 19.0%, the “Coefficient of moisture absorption” value ([2]; storage time 7 days) was 20.5% and the “Coefficient of moisture absorption” value ([2]; storage time 14 days) was 21.0%. The “Coefficient of moisture absorption” value ([2]; storage time 30 days) was 21.2%.

For `OCC(O)CO` [glycerol, reference compound], the “expression level of the hyaluronan synthetase gene (HAS 1) compared to the non-addition group” value [1] was “no significant difference”.
